# Measured values from US11311520B2, “Substituted dihydroimidazopyridinediones as MKNK1 and MKNK2 inhibitors” (Bayer Pharma Aktiengesellschaft, priority 2017, dated 2022).
# Where a name gives a salt, the structure may show the parent alone.
# Molecular target: human full-length MKNK1 (Homo sapiens (Human), UniProt Q9BUB5, T344D)
# Assay: MKNK1 kinase high ATP assay (TR-FRET)
# Assay type: biochemical
# Settings: 2 mM ATP, 15 min preincubation with enzyme, GST-MKNK1 (T344D)
# Protocol: MKNK1 Kinase High ATP Assay
# MKNK1-inhibitory activity at high ATP of compounds of the present invention after their preincubation with MKNK1 was quantified employing the TR-FRET-based MKNK1 high ATP assay as described in the following paragraphs.
# A recombinant fusion protein of Glutathione-S-Transferase (GST, N-terminally) and human full-length MKNK1 (amino acids 1-424 and T344D of accession number BAA 19885.1), expressed in insect cells using baculovirus expression system and purified via glutathione sepharose affinity chromatography, was purchased from Carna Biosciences (product no 02-145) and used as enzyme. As substrate for the kinase reaction the biotinylated peptide biotin-Ahx-IKKRKLTRRKSLKG (SEQ ID NO: 1) (C-terminus in amide form) was used, which can be purchased e.g. from the company Biosyntan (Berlin-Buch, Germany)
# For the assay 50 nL of a 100 fold concentrated solution of the test compound in DMSO was pipetted into a black low volume 384 well microtiter plate (Greiner Bio-One, Frickenhausen, Germany), 2 μL of a solution of MKNK1 in aqueous assay buffer [50 mM HEPES pH 7.5, 5 mM MgCl2, 1.0 mM dithiothreitol, 0.005% (v/v) Nonidet-P40 (Sigma)] was added and the mixture was incubated for […] at 22° C. to allow pre-binding of the test compounds to the enzyme before the start of the kinase reaction. Then the kinase reaction was started by the addition of 3 μL of a solution of adenosine-tri-phosphate (ATP, 3.3 mM=>final conc. in the 5 μL assay volume is 2 mM) and substrate (0.1 μM=>final conc. in the 5 μL assay volume is 0.06 μM) in assay buffer and the resulting mixture was incubated for a reaction time of 30 min at 22° C. The concentration of MKNK1 was adjusted depending of the activity of the enzyme lot and was chosen appropriate to have the assay in the linear range, typical concentrations were in the range of 0.003 μg/mL. The reaction was stopped by the addition of 5 μL of a solution of TR-FRET detection reagents (5 nM streptavidine-XL665 [Cisbio Bioassays, Codolet, France] and 1 nM anti-ribosomal protein S6 (pSer236)-antibody from Invitrogen [#44921G] and 1 nM LANCE EU-W1024 labeled ProteinG [Perkin-Elmer, product no. AD0071]) in an aqueous EDTA-solution (100 mM EDTA, 0.1% (w/v) bovine serum albumin in 50 mM HEPES pH 7.5).
# The resulting mixture was incubated for 1 h at 22° C. to allow the formation of complex between the phosphorylated biotinylated peptide and the detection reagents. Subsequently the amount of phosphorylated substrate was evaluated by measurement of the resonance energy transfer from the Eu-chelate to the streptavidine-XL. Therefore, the fluorescence emissions at 620 nm and 665 nm after excitation at 350 nm were measured in a TR-FRET reader, e.g. a Rubystar (BMG Labtechnologies, Offenburg, Germany) or a Viewlux (Perkin-Elmer). The ratio of the emissions at 665 nm and at […] was taken as the measure for the amount of phosphorylated substrate. The data were normalised (enzyme reaction without inhibitor=0% inhibition, all other assay components but no enzyme=100% inhibition).
# human full-length MKNK1, sequence (Q9BUB5 other isoform, or with tags, fused parts or gaps T344D): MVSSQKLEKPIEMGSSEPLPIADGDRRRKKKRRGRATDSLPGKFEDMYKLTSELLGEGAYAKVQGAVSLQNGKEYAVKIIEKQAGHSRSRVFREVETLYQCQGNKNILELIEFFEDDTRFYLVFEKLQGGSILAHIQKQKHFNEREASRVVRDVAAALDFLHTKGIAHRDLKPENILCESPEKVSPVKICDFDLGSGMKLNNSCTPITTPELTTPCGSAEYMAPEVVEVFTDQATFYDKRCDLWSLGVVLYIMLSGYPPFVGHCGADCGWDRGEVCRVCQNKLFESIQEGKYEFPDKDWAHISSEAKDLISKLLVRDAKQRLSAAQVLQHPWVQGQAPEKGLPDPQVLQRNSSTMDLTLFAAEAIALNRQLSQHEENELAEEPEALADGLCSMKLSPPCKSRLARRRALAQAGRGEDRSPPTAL
Compound,IC50 [nM],IC50 (hydrochloride) [nM]
"Cc1cc(Nc2ncnc3ccc(Cl)cc23)c(=O)n2c1C(=O)NC21CSC1 [Example 175, 6-[(6-chloroquinazolin-4-yl)amino]-8-methyl-2H-spiro[imidazo[1,5-a]pyridine-3,3′-thietane]-1,5-dione]",14.4,
"Cc1cc(Nc2ncnc3ccc(F)cc23)c(=O)n2c1C(=O)N[C@]21CC[C@@](O)(C(F)(F)C(F)(F)F)CC1 [Example 192, (cis)-6′-[(6-fluoroquinazolin-4-yl)amino]-4-hydroxy-8′-methyl-4-(pentafluoroethyl)-2′H-spiro[cyclohexane-1,3′-imidazo[1,5-a]pyridine]-1′,5′-dione]",281,
"Cc1cc(Nc2ncnc3c2ncn3CC(=O)N(C)C)c(=O)n2c1C(=O)NC21CCCCC1 [Example 49, N,N-Dimethyl-2-{6-[(8′-methyl-1′,5′-dioxo-1′,5′-dihydro-2′H-spiro[cyclohexane-1,3′-imidazo[1,5-a]pyridin]-6′-yl)amino]-9H-purin-9-yl}acetamide]",490,
"COc1cccc2ncnc(Nc3cc(C)c4n(c3=O)C3(CCCCC3)NC4=O)c12 [Example 118, 6′-[(5-Methoxyquinazolin-4-yl)amino]-8′-methyl-2′H-spiro[cyclohexane-1,3′-imidazo[1,5-a]pyridine]-1′,5′-dione]",66.3,
"Cc1cc(Nc2ncnc3sc(C(=O)O)cc23)c(=O)n2c1C(=O)NC21CCCC1 [Example 58, 4-[(8′-Methyl-1′,5′-dioxo-1′,5′-dihydro-2′H-spiro[cyclopentane-1,3′-imidazo[1,5-a]pyridin]-6′-yl)amino]thieno[2,3-d]pyrimidine-6-carboxylic acid]",18.8,
"Cc1cc(Nc2ncnc3sc(C(=O)N(C)CCN(C)C)cc23)c(=O)n2c1C(=O)NC21CCCCC1 [Example 13, N-[2-(Dimethylamino)ethyl]-N-methyl-4-[(8′-methyl-1′,5′-dioxo-1′,5′-dihydro-2′H-spiro[cyclohexane-1,3′-imidazo[1,5-a]pyridin]-6′-yl)amino]thieno[2,3-d]pyrimidine-6-carboxamide]",5.2,
"Cc1cc(Nc2ncnc3sc(C(=O)NCCN(C)C)cc23)c(=O)n2c1C(=O)NC21CCCCC1 [Example 25, N-[2-(Dimethylamino)ethyl]-4-[(8′-methyl-1′,5′-dioxo-1′,5′-dihydro-2′H-spiro[cyclohexane-1,3′-imidazo[1,5-a]pyridin]-6′-yl)amino]thieno[2,3-d]pyrimidine-6-carboxamide]",1.9,
"Cc1cc(Nc2ncnc3ccc(Cl)cc23)c(=O)n2c1C(=O)NC21CS(=O)(=O)C1 [Example 180, 6-[(6-chloroquinazolin-4-yl)amino]-8-methyl-2H-spiro[imidazo[1,5-a]pyridine-3,3′-thietane]-1,5-dione 1′,1′-dioxide]",104,
Cc1cc(Nc2ncnc3c2ncn3CC(=O)N(C)CCN(C)C)c(=O)n2c1C(=O)NC21CCCCC1 [Example 50],950,
"Cc1cc(Nc2ncnc3sc(C(=O)N4CC(C#N)C4)cc23)c(=O)n2c1C(=O)NC21CCCC1 [Example 61, 1-({4-[(8′-Methyl-1′,5′-dioxo-1′,5′-dihydro-2′H-spiro[cyclopentane-1,3′-imidazo[1,5-a]pyridin]-6′-yl)amino]thieno[2,3-d]pyrimidin-6-yl}carbonyl)azetidine-3-carbonitrile]",5.9,
"CCNC(=O)N1Cc2ncnc(Nc3cc(C)c4n(c3=O)C3(CCCCC3)NC4=O)c2C1 [Example 75, N-Ethyl-4-[(8′-methyl-1′,5′-dioxo-1′,5′-dihydro-2′H-spiro[cyclohexane-1,3′-imidazo[1,5-a]pyridin]-6′-yl)amino]-5,7-dihydro-6H-pyrrolo[3,4-d]pyrimidine-6-carboxamide]",11.9,
"Cc1cc(Nc2ncnc3sc(C(=O)N4CC(N)C4)cc23)c(=O)n2c1C(=O)NC21CCC(F)(F)CC1 [Example 84, 6′-({6-[(3-Aminoazetidin-1-yl)carbonyl]thieno[2,3-d]pyrimidin-4-yl}amino)-4,4-difluoro-8′-methyl-2′H-spiro[cyclohexane-1,3′-imidazo[1,5-a]pyridine]-1′,5′-dione]",10.8,
"Cc1cc(Nc2ncnc3sc(C(N)=O)cc23)c(=O)n2c1C(=O)NC21CCCC1 [Example 102, 4-[(8′-Methyl-1′,5′-dioxo-1′,5′-dihydro-2′H-spiro[cyclopentane-1,3′-imidazo[1,5-a]pyridin]-6′-yl)amino]thieno[2,3-d]pyrimidine-6-carboxamide]",5.7,
"COCCN(C)C(=O)c1cc2c(Nc3cc(C)c4n(c3=O)C3(CCCCC3)NC4=O)ncnc2s1 [Example 11, N-(2-Methoxyethy)-N-methyl-4-[(8′-methyl-1′,5′-dioxo-1′,5′-dihydro-2′H-spiro[cyclohexane-1,3′-imidazo[1,5-a]pyridin]-6′-yl)amino]thieno[2,3-d]pyrimidine-6-carboxamide]",36.9,
"Cc1cc(Nc2ncnc3[nH]ncc23)c(=O)n2c1C(=O)NC21CCCCC1 [Example 34, 8′-Methyl-6′-(1H-pyrazolo[3,4-d]pyrimidin-4-ylamino)-2′H-spiro[cyclohexane-1,3′-imidazo[1,5-a]pyridine]-1′,5′-dione hydrochloride]",,8.1
"Cc1cc(Nc2ncnc3sc(C(=O)NCCN(C)C)cc23)c(=O)n2c1C(=O)NC21CCC(O)(C(F)(F)F)CC1 (centres unmarked) [Example 129, N-[2-(Dimethylamino)ethyl]-4-{[4-hydroxy-8′-methyl-1′,5′-dioxo-4-(trifluoromethyl)-1′,5′-dihydro-2′H-spiro[cyclohexane-1,3′-imidazo[1,5-a]pyridin]-6′-yl]amino}thieno[2,3-d]pyrimidine-6-carboxamide]",21,
"Cc1cc(Nc2ncnc3sc(C(=O)N4CC(N)C4)cc23)c(=O)n2c1C(=O)NC21CCCCC1 [Example 28, 6′-({6-[(3-Aminoazetidin-1-yl)carbonyl]thieno[2,3-d]pyrimidin-4-yl}amino)-8′-methyl-2′H-spiro[cyclohexane-1,3′-imidazo[1,5-a]pyridine]-1′,5′-dione]",0.6,
"Cc1cc(Nc2ncnc3ccc(C(F)(F)F)cc23)c(=O)n2c1C(=O)NC21CCCC1 [Example 184, 8′-methyl-6′-{[6-(trifluoromethyl)quinazolin-4-yl]amino}-2′H-spiro[cyclopentane-1,3′-imidazo[1,5-a]pyridine]-1′,5′-dione]",34,
"Cc1cc(Nc2ncnc3sc(C(=O)N4C[C@H]5C[C@@H]4CO5)cc23)c(=O)n2c1C(=O)NC21CCC(F)(F)CC1 [Example 88, 4,4-Difluoro-8′-methyl-6′-({6-[(1R,4R)-2-oxa-5-azabicyclo[2.2.1]hept-5-ylcarbonyl]thieno[2,3-d]pyrimidin-4-yl}amino)-2′H-spiro[cyclohexane-1,3′-imidazo[1,5-a]pyridine]-1′,5′-dione]",13.5,
"Cc1cc(Nc2ncnc(N)n2)c(=O)n2c1C(=O)NC21CCCC1 [Example 54, 6′-[(4-Amino-1,3,5-triazin-2-yl)amino]-8′-methyl-2′H-spiro[cyclopentane-1,3′-imidazo[1,5-a]pyridine]-1′,5′-dione]",5.7,
"Cc1cc(Nc2ncnc3c(F)cccc23)c(=O)n2c1C(=O)NC21CCCCC1 [Example 111, 6′-[(8-Fluoroquinazolin-4-yl)amino]-8′-methyl-2′H-spiro[cyclohexane-1,3′-imidazo[1,5-a]pyridine]-1′,5′-dione]",517,
"Cc1cc(Nc2ncnc3sc(C(=O)N4CC(NC(=O)OC(C)(C)C)C4)cc23)c(=O)n2c1C(=O)NC21CCCCC1 [Example 27, tert-Butyl [1-({4-[(8′-methyl-1′,5′-dioxo-1′,5′-dihydro-2′H-spiro[cyclohexane-1,3′-imidazo[1,5-a]pyridin]-6′-yl)amino]thieno[2,3-d]pyrimidin-6-yl}carbonyl)azetidin-3-yl]carbamate]",4,
"Cc1ccc2ncnc(Nc3cc(C)c4n(c3=O)C3(CCCCC3)NC4=O)c2c1 [Example 122, 8′-Methyl-6′-[(6-methylquinazolin-4-yl)amino]-2′H-spiro[cyclohexane-1,3′-imidazo[1,5-a]pyridine]-1′,5′-dione]",13.2,
